Molecules are shown by their SMILES.

The test concerns HIV-1. The test is described as follows: HOS HIV-1 infectivity assay. The test is classed as cell-based. The conditions noted are these: Human immunodeficiency virus 1, BAL / IIIB, HOS cells expressing hCXCR4/hCCR5/hCD4/pHIV-LTR-luciferase, virus strain (Ba-L or IIIB) not given, read-out: Activity Level. As to the method:
Compounds were profiled against two HIV-1 viruses, the M-tropic (CCR5 utilizing) Ba-L strain and the T-tropic (CXCR4 utilizing) IIIB strain. Both viruses were propagated in human peripheral blood lymphocytes. Compounds were tested for there ability to block infection of the HOS cell line (expressing hCXCR4/hCCR5/hCD4/pHIV-LTR-luciferase) by either HIV-1 Ba-L or HIV-1 IIIB. Compound cytotoxicity was also examined in the absence of virus addition.
HOS cells (expressing hCXCR4/hCCR5/hCD4/pHIV-LTR-luciferase) were harvested and diluted in Dulbeccos modified Eagles media supplemented with 2% FCS and non-essential amino acid to a concentration of 60,000 cells/ml. The cells were plated into 96-well plates (100 ul per well) and the plates were placed in a tissue culture incubator (37° C.; 5% CO2/95% air) for a period of 24h.
Subsequently, 50 ul of the desired drug solution (4 times the final concentration) was added to each well and the plates were returned to the tissue culture incubator (37° C.; 5% CO2/95% air) for 1h. Following this incubation 50 ul of diluted virus was added to each well (approximately 2 million RLU per well of virus). The plates were returned to the tissue culture incubator (37° C.; 5% CO2/95% air) and were incubated for a further 96h.
Following this incubation the endpoint for the virally infected cultures was quantified following addition of Steady-Glo Luciferase assay system reagent (Promega, Madison, Wis.). Cell viability or non-infected cultures was measured using a CellTiter-Glo luminescent cell viability assay system (Promega, Madison, Wis.). All luminescent readouts are performed on a Topcount luminescence detector (Packard, Meridien, Conn.).
In the case of `CN1CCN(c2cccc3nc(CN(C)[C@H]4CCCc5cccnc54)c(CNS(=O)(=O)c4ccccc4)n23)CC1` [Example 37, N-{[5-(4-Methyl-1-piperazinyl)-2-({methyl[(8S)-5,6,7,8-tetrahydro-8-quinolinyl]amino}methyl)imidazo[1,2-a]pyridin-3-yl]methyl}benzenesulfonamide], the IC50 is below 100 nM.

Turning to `CN1CCN(c2cccc3nc(CN(C)[C@H]4CCCc5cccnc54)c(CNS(=O)(=O)Cc4ccccc4)n23)CC1` [Example 38, N-{[5-(4-Methyl-1-piperazinyl)-2-({methyl[(8S)-5,6,7,8-tetrahydro-8-quinolinyl]amino}methyl)imidazo[1,2-a]pyridin-3-yl]methyl}-1-phenylmethanesulfonamide], the IC50 was below 100 nM.

As to `CCNC(=O)NCc1c(CN(C)[C@H]2CCCc3cccnc32)nc2cccc(N3CCN(C)CC3)n12` [Example 39, N-Ethyl-N′-{[5-(4-methyl-1-piperazinyl)-2-({methyl[(8S)-5,6,7,8-tetrahydro-8-quinolinyl]amino}methyl)imidazo[1,2-a]pyridin-3-yl]methyl}urea], the IC50 was below 100 nM.

Regarding `CC(C)NC(=O)NCc1c(CN(C)[C@H]2CCCc3cccnc32)nc2cccc(N3CCN(C)CC3)n12` [Example 40, N-(1-Methylethyl)-N′-{[5-(4-methyl-1-piperazinyl)-2-({methyl[(8S)-5,6,7,8-tetrahydro-8-quinolinyl]amino}methyl)imidazo[1,2-a]pyridin-3-yl]methyl}urea], the IC50 is below 100 nM.

In the case of `CN1CCN(c2cccc3nc(CN(C)[C@H]4CCCc5cccnc54)c(CNC(=O)Nc4ccccc4)n23)CC1` [Example 41, N-{[5-(4-Methyl-1-piperazinyl)-2-({methyl[(8S)-5,6,7,8-tetrahydro-8-quinolinyl]amino}methyl)imidazo[1,2-a]pyridin-3-yl]methyl}-N′-phenylurea], the IC50 was below 100 nM.

As for `CN1CCN(c2cccc3nc(CN(C)[C@H]4CCCc5cccnc54)c(CNC(=O)Nc4ccc(N(C)C)cc4)n23)CC1` [Example 42, N-[4-(Dimethylamino)phenyl]-N′-{[5-(4-methyl-1-piperazinyl)-2-({methyl[(8S)-5,6,7,8-tetrahydro-8-quinolinyl]amino}methyl)imidazo[1,2-a]pyridin-3-yl]methyl}urea], the IC50 is below 100 nM.

For `COc1ccc(NC(=O)NCc2c(CN(C)[C@H]3CCCc4cccnc43)nc3cccc(N4CCN(C)CC4)n23)cc1` [Example 43, N-[4-(Methyloxy)phenyl]-N′-{[5-(4-methyl-1-piperazinyl)-2-({methyl[(8S)-5,6,7,8-tetrahydro-8-quinolinyl]amino}methyl)imidazo[1,2-a]pyridin-3-yl]methyl}urea], the IC50 was below 100 nM.

For `CN1CCN(c2cccc3nc(CN(C)[C@H]4CCCc5cccnc54)c(CNC(N)=O)n23)CC1` [Example 44, N-{[5-(4-Methyl-1-piperazinyl)-2-({methyl[(8S)-5,6,7,8-tetrahydro-8-quinolinyl]amino}methyl)imidazo[1,2-a]pyridin-3-yl]methyl}urea], the IC50 was below 100 nM.

The values are drawn from US20080234318A1, “Chemical Compounds” (priority 2005, published 2008).
